For assay [1], the system named is TXNIP mRNA. Description: TXNIP mRNA in primary human pancreatic islets under 25 mM glucose (RT-PCR). The note with it: human pancreatic islets (500 IEQ), 2.5 uM, 48 h. The format is cell-based. Here is the method:
FIGS. 12A-12B. […] Human pancreatic islets (500 IEQ) were cultured with PIM(R) (Prodo Labs) medium under 25 mM glucose with 2.5 uM of the indicated compounds for 48 h. Total RNA was collected. RT-PCR was performed in triplicate and data shown are the mean±SEM. Statistical analysis was performed using one-way ANOVA: *p<0.0001. […] Human pancreatic islets (500 IEQ) were cultured with PIM(R) (Prodo Labs) under 25 mM glucose with 2.5 uM of the indicated compounds for 48 h. Total RNA was collected. RT-PCR was performed in triplicate and data shown are the mean+SEM. Statistical analysis was performed using one-way ANOVA: *p<0.0001.
Testing lead compounds in human pancreatic islets. To further explore the effects of the lead compounds as possible therapies in diabetes, we conducted translational studies in primary human pancreatic islets (obtained from the City of Hope islet isolation center).
(§1) RNA extraction and quantitative RT-PCR. RNA was extracted using the Direct-zol™ RNA MiniPrep Plus (Zymo Research). […] Diluted cDNA was quantified using real-time PCR performed with Power SYBR Green qPCR MasterMix (Applied Biosystem) and 7500 real-time PCR system (Applied Biosystems). […]

Assay [2] concerns TXNIP mRNA. Description: TXNIP mRNA in CD14+ monocytes from type 2 diabetic donors (RT-qPCR). The format is cell-based, human. The following applies: CD14+ monocytes of T2D donors, 5 uM, 45 hours, ex vivo. As to the method:
FIG. 20. Several lead compounds suppress TXNIP mRNA in T2D monocytes. CD14^+ monocytes were isolated from T2D patient peripheral blood mononuclear cells (PBMCs) and cultured in RPMI 1640 medium with 5 uM of C30 or C38 for 45 hours. Total RNA was collected. RT-PCR was performed in triplicates and data shown are the mean±SEM. Statistical analysis was performed using one-way ANOVA: *p<0.0001.
Anti-inflammatory (protective) effects of lead compounds in monocytes isolated from peripheral blood obtained from type 2 diabetic subjects. In accordance with an approved IRB protocol and our published methods, we isolated CD14+ monocytes from the peripheral blood of two donors with documented type 2 diabetes (T2D). These monocytes were cultured in vitro with vehicle, 5 uM C30 or C38, and levels of human TXNIP transcript assessed by RT-qPCR.
Background: Quantitative PCR measures a nucleic acid by following its amplification.

For assay [3], the system named is TXNIP mRNA. Put plainly: TXNIP mRNA levels in murine MIN6 pancreatic beta cells (RT-PCR). In kind it is cell-based, mouse. The note with it: 25 mM glucose, 72 hours. Here is the method: FIGS. 4A-4B. […] MIN6 cells were cultured under 25 mM glucose with C30 and C38 at the indicated concentrations for 72 hours. Total RNA was prepared. RT-PCR was performed and data shown are the mean±SEM from triplicates. Statistical analysis was performed for each column vs. HG DMSO using one-way ANOVA: *p<0.0001. […] MIN6 cells were cultured under 25 mM glucose and treated with C30 and C38 at the indicated concentrations for 72 hours. Total RNA was prepared. RT-PCR was performed and data shown are the mean±SEM from triplicates. Statistical analysis was performed for each column vs. HG DMSO using one-way ANOVA: *p<0.0001.
To ascertain the relevance to pancreatic beta cells, we tested the effects of the lead compounds on key target gene mRNA levels in murine MIN6 pancreatic beta cells.
RNA extraction and quantitative RT-PCR. RNA was extracted using the Direct-zol™ RNA MiniPrep Plus (Zymo Research). Reverse transcription of RNA samples into cDNA was performed using the GeneAmp RNA PCR Kit (Applied Biosystems), dNTP (from Roche Applied Science), Rnase inhibitor, MULV Reverse Transcriptase and Random hexamers reagent (all from Invitrogen). Diluted cDNA was quantified using real-time PCR performed with Power SYBR Green qPCR MasterMix (Applied Biosystem) and 7500 real-time PCR system (Applied Biosystems). The HPRT1 gene was used as an internal control.

Assay [4] relates to TNF-α mRNA. Put plainly: TNF-α mRNA expression in THP1 cells under 25 mM glucose (RT-PCR). The format is cell-based, human. The following applies: 72 hours, relatively higher concentrations needed than for TXNIP mRNA. Here is the method:
FIGS. 2A-2B. FIG. 2A: C30 and C38 inhibited TXNIP mRNA expression in THP1 cells. THP1 cells were cultured under 25 mM glucose with the indicated concentrations of compounds for 72 hours. Cells were then collected for total RNA preparation. RT-PCR was performed, and data shown are the mean±SEM from triplicates. Statistical analysis was performed using one-way ANOVA, *p<0.0001. FIG. 2B: C30 and C38 inhibited TNF-α mRNA expression in THP1 cells. THP1 cells were cultured under 25 mM glucose with various concentrations of compounds as indicated for 72 hours and collected for total RNA preparation. RT-PCR was performed, and data shown are the mean±SEM from triplicates. Statistical analysis was performed using one-way ANOVA: *<0.02; **<0.0001.
Treatment with both agents lead to lower levels of TNF-α mRNA, although this required relatively higher concentrations compared to those that suppressed TXNIP mRNA (see FIG. 2A).
as §1

Data on two compounds can be found in patent US11964984B2, “TXNIP-TRX complex inhibitors and methods of using the same” (CITY OF HOPE, priority 2020, dated 2024).

Take `c1ccc(CCNc2ncnc3c2oc2ccccc23)cc1` [Compound C38]: the “TXNIP mRNA” value in assay [1] was “target TXNIP mRNA”. For the same compound, in assay [2], the “expression of TXNIP” value is listed as “can inhibit the expression of TXNIP”. For the same compound, the “TXNIP mRNA levels” value in assay [3] was “decreased TXNIP mRNA levels”. In addition, in assay [4], the “TNF-α mRNA expression” value is reported as “reduced TNF-α expression”.

As to `COc1cc(N2CC[C@@H](c3ccc4ccccc4c3)[C@H](O)C2)nc(N)n1` [Compound C30], the “TXNIP mRNA” value in assay [1] is recorded as “target TXNIP mRNA”. Moreover, the “expression of TXNIP” value in assay [2] was “can inhibit the expression of TXNIP”. For the same compound, the “TXNIP mRNA levels” value in assay [3] was “decreased TXNIP mRNA levels”. In assay [4], the “TNF-α mRNA expression” value is given as “reduced TNF-α expression”.
